{"source": "patent US20140017216A1", "about": "“PESTICIDAL MIXTURES” (BAYER CROPSCIENCE LP, priority 2011, published 2014)", "system": "southern armyworm (Spodoptera eridania)", "test": "Test B.7: control of southern armyworm, leaf-dip on lima bean leaves, larval mortality", "assay_type": "in vivo", "settings": "single active, neonate larvae, 4 days", "procedure": "For evaluating control of southern armyworm (Spodoptera eridania) the test unit consists of Petri dishes containing eight-day-old Henderson bush lima bean leaves and 10 neonate S. eridania larvae.\nThe compounds or mixtures are formulated using a solution containing […] water and 0.05 vol % of a surfactant (Kinetic). Leaves are dipped into different concentrations of formulated compounds or mixtures and allowed to dry. Four replications are performed.\nFor experimental mixtures in these tests identical volumes of both mixing partners at the desired concentrations respectively, are mixed together.\nAfter application, Petri dishes are incubated in the dark at 26±1° C., for 4 days. Larval mortality is visually assessed.\nMetaflumizone at rates of 2.5 and 5.0 kg ai/ha and Streptomyces galbus strain M1064 at rates of 0.69. 1.39, and 2.79 kg ai/ha were tested singly and in combination for control of southern armyworm, Spodoptera eridania in the laboratory.", "data": [{"smiles": "N#Cc1ccc(CC(=NNC(=O)Nc2ccc(OC(F)(F)F)cc2)c2cccc(C(F)(F)F)c2)cc1", "note": "(mixture of isomers) [Metaflumizone, metaflumizone]", "values": [{"measurement": "Observed Mortality", "setting": "application rate 2.5 kg ai/ha", "result": 15.0, "unit": "%"}, {"measurement": "Observed Mortality", "setting": "application rate 5.0 kg ai/ha", "result": 47.5, "unit": "%"}]}]}
